Assays:
[1] = Phase 2 study in relapsed/refractory AML: safety; design: species or system human; details: in vivo
Protocol: (§1) A Phase 2 study of Compound I-1 using different regimens and doses (randomized 5-day regimen cohorts of 60 mg/m^2/d vs 90 mg/m^2/d SC) and a cohort of 10-day regimen in the first 1-4 cycles at 60 mg/m^2/d followed by subsequent cycles of 5-day regimen) was conducted as described above. Response and duration of response were assessed using IWG 2003 criteria: Complete Response (CR), CR with incomplete platelet recovery (CRp), and CR with incomplete count recovery (CRi). CR+CRp+CRi was defined as composite CR (CRc). Overall survival (OS) was assessed using the Kaplan-Meier (KM) method. Response status for each dose/regimen cohort and the overall treated population were assessed with analyses of duration of response and long-term survival.

[2] = Phase 3 trial safety: adverse events, ECG, mortality; type: in vivo
Excerpt: Two co-primary endpoints were used: complete response (CR) rate based on modified International Working Group (IWG) 2003 AML Response Criteria and OS (the number of days from randomization to death). Secondary endpoints included CRc (CR+CR with incomplete blood count recovery [CRi]+CR with incomplete platelet recovery [CRp]) rate, number of days alive and out of the hospital (NDAOH), progression-free survival (PFS), health related quality of life (QOL) by EQ-5D (consisting of the EQ-5D-5L descriptive system and the EQ Visual Analogue Scale [EQ VAS]), duration of CR (the time from first CR to time of relapse), incidence and severity of adverse events (AEs), and 30- and 60-day all-cause mortality.
The incidence and severity of adverse events (AEs) and 30- and 60-day all-cause mortality were summarized with descriptive statistics. No formal statistical testing between the treatment groups was planned for safety assessments.

[3] = system: relapsed/refractory (r/r) AML; experiment: Phase 2 study in relapsed/refractory AML: response, duration of response, survival; type: in vivo, human; details: for CR response rate, % / CRc (CR + CRp + CRi) response rate, % / CRi response rate, % / CRp response rate, % / CRc, %: r/r AML; for CRc, %: all regimens
Protocol: as §1

[4] = Phase 1/2 trial safety: adverse events, all-cause mortality; type: in vivo, human
Excerpt: Safety was monitored throughout the study by physical examinations and clinical laboratory tests, including hematology, chemistry for liver and renal function, urinalysis, pregnancy tests, pharmacokinetics, epi-genetics, buccal swab, and pharmacogenetic markers. Electrocardiograms were obtained at baseline screening and day 1 of each treatment cycle.
The primary endpoint was overall response, which was a composite of complete response (CR), partial response, marrow complete response (mCR), and hematological improvement. Overall response was assessed by local investigators. Secondary endpoints included the individual components of overall response, time to response, duration of response, overall survival, blood transfusion and platelet transfusion independence at weeks 8 and 16, and safety, including the incidence of adverse events, and all-cause early mortality at 30, 60, and 90 days. Exploratory analyses were done to examine the association between baseline characteristics and overall response.
Treatment-emergent adverse events, which are events that first occurred or worsened after the first dose of study drug until 30 days after the last dose or until the start of an alternative anticancer treatment (whichever occurred first), and all-cause 30-day, 60-day, and 90-day cumulative mortality, were summarized descriptively.

[5] = Phase 3 trial pharmacokinetics and exposure response; type: in vivo, human
Protocol: A previously developed Population PK model was applied to calculate model-derived estimates for total cycle exposures (Cmax and AUC) from sparse PK samples collected in Cycle 1 for Compound I-1 and decitabine for use in exposure-response analysis for efficacy and safety. The analyses of exposure-efficacy and exposure-safety relationships were performed separately for patients who received Compound I-1 and patients who received decitabine IV. The following analyses were performed to assess relationships of CR with exposure for each exposure measure: frequencies of CR were tabulated and compared between tertiles of exposure; distributions of exposure were compared for patients with and without CR using box plots; and probability of CR was explored using logistic regression models.

[6] = 5 Day regimen (60 and 90 mg/m^2), n = 50
[7] = 10 Day regimen (60 mg/m^2), n = 53

Structure (SMILES): Nc1ncn([C@H]2CC(OP(=O)(O)OC[C@H]3O[C@@H](n4cnc5c(=O)[nH]c(N)nc54)CC3O)[C@@H](CO)O2)c(=O)n1 (stereo partly shown) [Compound I-1]
- Grade 3 or higher AEs related to the drug [1]: 42%
- Related serious AEs leading to death [1]: no related serious AEs leading to death
- Related AE with an outcome of death, each of: hematophagy histiocytosis, small intestinal hemorrhage, general physical health deterioration, mucormycosis, osteonecrosis ([2]; 1 subject each): 0.2%
- Discontinuations due to a related AE that was an infection event ([2]; human, in vivo): 7 subjects
- Dose reductions due to AEs ([2]; human, in vivo): 6.0%
- Related SAE anemia ([2]; human, in vivo): 1.0%
- Related SAE febrile neutropenia ([2]; human, in vivo): 13.7%
- Related SAE pneumonia ([2]; human, in vivo): 8.5%
- Related SAE sepsis ([2]; human, in vivo): 4.0%
- Related SAE septic shock ([2]; human, in vivo): 1.2%
- Related SAE thrombocytopenia ([2]; human, in vivo): 1.7%
- SAE febrile neutropenia incidence ([2]; human, in vivo): 25.2%
- SAE pneumonia incidence ([2]; human, in vivo): 28.4%
- SAE sepsis incidence ([2]; human, in vivo): 15.0%
- Treatment Discontinuation Before 4 Cycles: Adverse Event ([2]; human, in vivo): 6.4%
- Treatment Discontinuation Before 6 Cycles: Adverse Event ([2]; human, in vivo): 7.4%
- Treatment delays due to adverse events ([2]; human, in vivo): 48.1%
- AE with an outcome of death: febrile neutropenia ([2]; human, in vivo, 60 mg/m^2): 0.2%
- AE with an outcome of death: pneumonia ([2]; human, in vivo, 60 mg/m^2): 5.0%
- AE with an outcome of death: sepsis ([2]; human, in vivo, 60 mg/m^2): 6.5%
- AE with an outcome of death: septic shock ([2]; human, in vivo, 60 mg/m^2): 2.0%
- Related AE with an outcome of death: febrile neutropenia ([2]; human, in vivo, 60 mg/m^2): 0.2%
- Thirty-day all-cause mortality ([2]; human, in vivo, 60 mg/m^2, 30 day): 11.2%
- 60-day mortality ([2]; human, in vivo, 60 mg/m^2, 60 day): 20.9%
- Effect on heart rate (ECG) ([2]; in vivo): no effect on heart rate
- Effects on ECG parameters ([2]; in vivo): No effects on ECG parameters were observed
- Treatment Discontinuation Before 4 Cycles: Death ([2]; n = 408 I-1, n = 407 TC): 17.6%
- Treatment Discontinuation Before 6 Cycles: Death ([2]; n = 408 I-1, n = 407 TC): 22.5%
- CR Rate ([3]; 5-day regimen): 8%
- CRc rate ([3]; 5-day regimen): 16%
- CR Rate ([3]; 10-day regimen): 19%
- CRc rate ([3]; 10-day regimen): 30%
- 2-year survival rate ([3]; CR): 57%
- 2-year survival rate ([3]; CRc patients receiving HCT): 50%
- 2-year survival rate ([3]; CRc patients who did not undergo HCT): 60%
- 2-year survival rate ([3]; CRp/CRi): 50%
- CRc ([3]; early relapse (<6 months from prior treatment)): 22%
- CR Composite (CR + CRp + CRi) Duration of Response, median (range) ([3]; in vivo): 7.8 (0.5-30) Months
- Complete Response (CR) Duration of Response, median (range) ([3]; in vivo): 7 (1-29.5) Months
- Post treatment HCT in responders ([3]; in vivo): 58%
- Achieved CRc ([3]; of 19 patients who had prior HCT): 5 patients
- Median OS ([3]; patients who achieved CRc (either CR or CRp/CRi)): has not been reached
- CRc ([3]; patients who relapsed after prior HCT (19 patients)): 26%
- CRc ([3]; patients with poor risk cytogenetics): 19%
- CR response rate, % [3, 6]: (6%)
- CRc (CR + CRp + CRi) response rate, % [3, 6]: (16%)
- CRi response rate, % [3, 6]: (8%)
- CRp response rate, % [3, 6]: (2%)
- CR response rate, % [3, 7]: (19%)
- CRc (CR + CRp + CRi) response rate, % [3, 7]: (30%)
- CRi response rate, % [3, 7]: (4%)
- CRp response rate, % [3, 7]: (7%)
- CRc, % ([3]; subgroup Age (y) <65 (N 63)): (19%)
- CRc, % ([3]; subgroup Age (y) >65 (N 40)): (30%)
- CRc, % ([3]; subgroup Cytogenetics Adverse (N 42)): (19%)
- CRc, % ([3]; subgroup Cytogenetics Diploid (N 21)): (19%)
- CRc, % ([3]; subgroup Cytogenetics Others (N 40)): (30%)
- CRc, % ([3]; subgroup ECOG PS 0-1 (N 89)): (26%)
- CRc, % ([3]; subgroup ECOG PS 2 (N 12)): (7%)
- CRc, % ([3]; subgroup Prior HCT No (N 84)): (23%)
- CRc, % ([3]; subgroup Prior HCT Yes (N 19)): (26%)
- CRc, % ([3]; subgroup Response to Induction CR (N 55)): (15%)
- CRc, % ([3]; subgroup Response to Induction Refractory (N 48)): (25%)
- CRc, % ([3]; subgroup Time From Last Therapy <6 months (N 82)): (22%)
- CRc, % ([3]; subgroup Time From Last Therapy >6 months (N 20)): (30%)
- CRc ([3]; refractory patients): 31%
- Patients who died from serious adverse events ([4]; all treated): Seven
- Drug-related serious adverse event anemia ([4]; human, in vivo): 3%
- Drug-related serious adverse event pneumonia ([4]; human, in vivo): 7%
- Drug-related serious adverse event thrombocytopenia ([4]; human, in vivo): 3%
- 30-day all-cause mortality ([4]; of 102 patients): 1%
- 60-day all-cause mortality ([4]; of 102 patients): 4%
- 90-day all-cause mortality ([4]; of 102 patients): 9%
- Serious adverse events that led to death considered treatment related ([4]; pneumonia with 90 mg/m^2 and septic shock with 60 mg/m^2): two
- Exposure to active metabolite decitabine ([5]; Compound I-1 SC vs decitabine IV): longer exposure to the active metabolite decitabine
- Time of highest mean plasma Compound I-1 concentration (first collection time point) ([5]; after SC injection): 1.5 h

Reference: patent publication US20200352976A1, “HYPOMETHYLATING AGENTS FOR USE IN TREATMENT OF CANCER” (Otsuka Pharmaceutical Co., Ltd, priority 2019, published 2020)
